Data from the supplement of paper PMC10307832.

Legend:
[1] = compound: Cc1ccc(Nc2nccc(N(C)c3ccc4c(C)n(C)nc4c3)n2)cc1S(N)(=O)=O [Pazopanib] + Cc1cc(Nc2cc(N3CCN(C)CC3)nc(Sc3ccc(NC(=O)C4CC4)cc3)n2)n[nH]1 [Tozasertib] (partner 0.1 µM); assay: relative viability (nuclei count vs DMSO), 5 days (fraction); higher = more cells survive
Outline: (§1)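 Relative viability is defined as nuclei in treated wells over nuclei in vehicle wells. Duplicate plates were run and medians reported. Lung cancer cell lines in 1536-well plates were dosed by pin tool one day after seeding, with one drug or with a fixed anchor-drug dose plus five library-drug doses (not always all listed) in √10 steps, and nuclei were counted after 5 days.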

[2] = compound: Cc1ccc(C(=O)Nc2ccc(CN3CCN(C)CC3)c(C(F)(F)F)c2)cc1C#Cc1cnc2cccnn12 [Ponatinib] + COc1cc2c(Oc3ccc(NC(=O)C4(C(=O)Nc5ccc(F)cc5)CC4)cc3F)ccnc2cc1OCCCN1CCOCC1 [Foretinib] (partner 0.25 µM); assay: as above
Outline: as §1

Cell Line	relative viability ([1]; first compound 0.01 µM)	relative viability ([1]; first compound 0.03162 µM)	relative viability ([1]; first compound 0.1 µM)	relative viability ([1]; first compound 0.3162 µM)	relative viability ([1]; first compound 1 µM)	relative viability ([2]; first compound 0.002 µM)	relative viability ([2]; first compound 0.006325 µM)	relative viability ([2]; first compound 0.06325 µM)	relative viability ([2]; first compound 0.2 µM)
NCI-H460	0.564	0.503	0.523	0.494	0.393	0.92	0.938	1	0.967
EPLC-272H	–	0.352	0.167	0.21	0.241	0.735	0.784	0.912	0.416
